Laboratory results reported in PubChem BioAssay (NCI).
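Test compounds were applied to cells in 96-well plates for 48 hours at 5 doses. TGI: concentration producing complete growth inhibition.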

Assays:
Assay in all cases: NCI tumour cell line growth inhibition, 48 h
TK-10 renal = test system: TK-10 renal
P388/ADR leukemia = test system: P388/ADR leukemia
HCT-116 colon = test system: HCT-116 colon
U251 CNS = test system: U251 CNS
IGROV1 ovarian = test system: IGROV1 ovarian
SNB-75 CNS = test system: SNB-75 CNS
LXFL 529 NSCLC = test system: LXFL 529 NSCLC
NCI-H23 lung = test system: NCI-H23 lung
DMS 114 small cell lung = test system: DMS 114 small cell lung
DLD-1 colon = test system: DLD-1 colon
HCT-15 colon = test system: HCT-15 colon
A498 renal = test system: A498 renal
UACC-257 melanoma = test system: UACC-257 melanoma
SF-295 CNS = test system: SF-295 CNS
MOLT-4 leukemia = test system: MOLT-4 leukemia
SN12C renal = test system: SN12C renal
MDA-N = test system: MDA-N
DMS 273 small cell lung = test system: DMS 273 small cell lung
HOP-92 NSCLC = test system: HOP-92 NSCLC
OVCAR-8 ovarian = test system: OVCAR-8 ovarian
HOP-62 NSCLC = test system: HOP-62 NSCLC
786-0 renal = test system: 786-0 renal
OVCAR-5 ovarian = test system: OVCAR-5 ovarian
K-562 leukemia = test system: K-562 leukemia
MALME-3M melanoma = test system: MALME-3M melanoma
DU-145 prostate = test system: DU-145 prostate
MCF7 breast = test system: MCF7 breast
RXF-631 renal = test system: RXF-631 renal
KM12 colon = test system: KM12 colon
SF-268 CNS = test system: SF-268 CNS
HT29 colon = test system: HT29 colon
SK-MEL-2 melanoma = test system: SK-MEL-2 melanoma
KM20L2 colon = test system: KM20L2 colon
SK-MEL-5 melanoma = test system: SK-MEL-5 melanoma
SK-OV-3 ovarian = test system: SK-OV-3 ovarian
SNB-19 CNS = test system: SNB-19 CNS
SNB-78 CNS = test system: SNB-78 CNS
M19-MEL melanoma = test system: M19-MEL melanoma
T-47D breast = test system: T-47D breast
RXF 393 renal = test system: RXF 393 renal
COLO 205 colon = test system: COLO 205 colon
SN12K1 renal = test system: SN12K1 renal
CCRF-CEM leukemia = test system: CCRF-CEM leukemia
P388 leukemia = test system: P388 leukemia
LOX IMVI melanoma = test system: LOX IMVI melanoma
XF 498 CNS = test system: XF 498 CNS
NCI-H460 lung = test system: NCI-H460 lung
EKVX NSCLC = test system: EKVX NSCLC
UO-31 renal = test system: UO-31 renal
SK-MEL-28 melanoma = test system: SK-MEL-28 melanoma
NCI-H522 lung = test system: NCI-H522 lung
SW-620 colon = test system: SW-620 colon
SR leukemia = test system: SR leukemia
MDA-MB-231 breast = test system: MDA-MB-231 breast
HCC-2998 colon = test system: HCC-2998 colon
ACHN renal = test system: ACHN renal
NCI/ADR-RES ovarian = test system: NCI/ADR-RES ovarian
RPMI-8226 leukemia = test system: RPMI-8226 leukemia
OVCAR-3 ovarian = test system: OVCAR-3 ovarian
M14 melanoma = test system: M14 melanoma
UACC-62 melanoma = test system: UACC-62 melanoma
SF-539 CNS = test system: SF-539 CNS
OVCAR-4 ovarian = test system: OVCAR-4 ovarian
NCI-H226 lung = test system: NCI-H226 lung
HS 578T breast = test system: HS 578T breast
A549 NSCLC = test system: A549 NSCLC
HL-60(TB) leukemia = test system: HL-60(TB) leukemia
CAKI-1 renal = test system: CAKI-1 renal
MDA-MB-435 = test system: MDA-MB-435
PC-3 prostate = test system: PC-3 prostate
HOP-18 NSCLC = test system: HOP-18 NSCLC
BT-549 breast = test system: BT-549 breast

Question: What does the source list for `Clc1ccc(C(c2ccccc2Cl)C(Cl)Cl)cc1` (configuration not stated)?
Answer: TGI (TK-10 renal): 37.5 µM; TGI (P388/ADR leukemia): 44.2 µM; TGI (HCT-116 colon): 31.4 µM; TGI (U251 CNS): 36.8 µM; TGI (IGROV1 ovarian): 30.7 µM; TGI (SNB-75 CNS): 35.1 µM; TGI (LXFL 529 NSCLC): 38.2 µM; TGI (NCI-H23 lung): 37.7 µM; TGI (DMS 114 small cell lung): 36.7 µM; TGI (DLD-1 colon): 38.6 µM; TGI (HCT-15 colon): 36.5 µM; TGI (A498 renal): 38.6 µM; TGI (UACC-257 melanoma): 37.2 µM; TGI (SF-295 CNS): 35.6 µM; TGI (MOLT-4 leukemia): 41.1 µM; TGI (SN12C renal): 37 µM; TGI (MDA-N): 35.1 µM; TGI (DMS 273 small cell lung): 36 µM; TGI (HOP-92 NSCLC): 32.1 µM; TGI (OVCAR-8 ovarian): 40 µM; TGI (HOP-62 NSCLC): 39.7 µM; TGI (786-0 renal): 36.7 µM; TGI (OVCAR-5 ovarian): 33.9 µM; TGI (K-562 leukemia): 44.2 µM; TGI (MALME-3M melanoma): 33.5 µM; TGI (DU-145 prostate): 34.3 µM; TGI (MCF7 breast): 37.8 µM; TGI (RXF-631 renal): 35.8 µM; TGI (KM12 colon): 37.1 µM; TGI (SF-268 CNS): 37.6 µM; TGI (HT29 colon): 33.7 µM; TGI (SK-MEL-2 melanoma): 35.8 µM; TGI (KM20L2 colon): 33.8 µM; TGI (SK-MEL-5 melanoma): 36.1 µM; TGI (SK-OV-3 ovarian): 39.7 µM; TGI (SNB-19 CNS): 37.6 µM; TGI (SNB-78 CNS): 41.5 µM; TGI (M19-MEL melanoma): 39 µM; TGI (T-47D breast): 33.3 µM; TGI (RXF 393 renal): 30.9 µM; TGI (COLO 205 colon): 38.9 µM; TGI (SN12K1 renal): 36.9 µM; TGI (CCRF-CEM leukemia): 47.1 µM; TGI (P388 leukemia): 38.2 µM; TGI (LOX IMVI melanoma): 40.2 µM; TGI (XF 498 CNS): 37.2 µM; TGI (NCI-H460 lung): 39.3 µM; TGI (EKVX NSCLC): 32.6 µM; TGI (UO-31 renal): 37.4 µM; TGI (SK-MEL-28 melanoma): 36.7 µM; TGI (NCI-H522 lung): 34.3 µM; TGI (SW-620 colon): 39.2 µM; TGI (SR leukemia): 46.5 µM; TGI (MDA-MB-231 breast): 35.2 µM; TGI (HCC-2998 colon): 29.4 µM; TGI (ACHN renal): 38.8 µM; TGI (NCI/ADR-RES ovarian): 37.1 µM; TGI (RPMI-8226 leukemia): 49 µM; TGI (OVCAR-3 ovarian): 34.3 µM; TGI (M14 melanoma): 37.1 µM; TGI (UACC-62 melanoma): 34.4 µM; TGI (SF-539 CNS): 36.5 µM; TGI (OVCAR-4 ovarian): 35.7 µM; TGI (NCI-H226 lung): 39.1 µM; TGI (HS 578T breast): 37.1 µM; TGI (A549 NSCLC): 35.4 µM; TGI (HL-60(TB) leukemia): 51.5 µM; TGI (CAKI-1 renal): 31.8 µM; TGI (MDA-MB-435): 32 µM; TGI (PC-3 prostate): 35.5 µM; TGI (HOP-18 NSCLC): 21.6 µM; TGI (BT-549 breast): 30.2 µM
